# Assay: in vitro
# Conditions: human, hela cells, % viability
row,SMILES,"viability at 28.5 h, 10 µM [%]"
1,Cc1c(Cl)c([N+](=O)[O-])nn1CCCC(=O)Nc1sc2c(c1C#N)CCC(C(C)(C)C)C2 (stereo not shown) [CBK269111],108
2,Cc1ccc(-n2c(SCC(=O)N3CCOCC3)nnc2-c2ccccc2O)c(C)c1 [CBK269112],88.1
3,Cc1ccc(C(C)C)c(OC(=O)c2ccc3nccnc3c2)c1 [CBK269114],62.7
4,O=S1(=O)N=C(Nc2ccc(S(=O)(=O)N3CCOCC3)cc2)c2ccccc21 [CBK269116],91
5,O=C(O)CCC(=O)N1CCN(c2ccc(C(=O)c3ccc(F)cc3)cc2)CC1 [CBK269119],112
6,Cc1ccc(NS(=O)(=O)c2ccc(OCC(=O)Nc3ccccc3C(F)(F)F)cc2)cc1 [CBK269120],86.4
7,COc1ccc(-n2c(SCCCN3C(=O)c4cccc5cccc(c45)C3=O)nnc2-c2ccncc2)cc1 [CBK269123],94.2
8,COc1ccc(C(CC(=O)O)NC(=O)c2ccc(Cl)cc2Cl)cc1 (stereo not shown) [CBK269131],91.8
9,NS(=O)(=O)c1ccc(CCNC(=O)Nc2ccc(Cl)c(Cl)c2)cc1 [CBK269133],90.3
10,Cc1cc(C)n(-c2nc3ccccc3nc2N2CCN(S(=O)(=O)c3ccc4ccccc4c3)CC2)n1 [CBK269134],103
11,COCCNC(=O)C1CCCCC1C(=O)O (stereo not shown) [CBK269135],108
12,Cc1nn(C(C)CC(=O)O)c(C)c1Br (stereo not shown) [CBK269138],91.7
13,N#C/C(=C/c1ccc(Sc2nc3ccccc3[nH]2)o1)c1ccc(C(=O)O)cc1 [CBK269141],112
14,Oc1ccc(Nc2ncnc3scc(-c4ccccc4)c23)cc1 [CBK269146C],108
15,O=C(NCC(c1ccccc1)c1c[nH]c2ccccc12)Nc1ccc(Cl)cc1 (stereo not shown) [CBK269147],91.9
16,COc1ccc(CC(=O)Nc2cccc(-c3cn4ccc(C)cc4n3)c2)cc1OC [CBK269148],84.5
17,Cn1c(SCC(=O)O)nnc1-c1cc(Br)ccc1O [CBK269150],103
18,CCc1cccc(CN2CCC(CNC(=O)Nc3ccc(Cl)cc3)CC2)c1 [CBK269151],93.4
19,CCOC(=O)c1cnc(SCC(=O)N2CCN(c3ccccc3)CC2)nc1N [CBK269159],90.5
20,O=C(O)CCCNS(=O)(=O)c1ccc(I)cc1 [CBK269160],102
21,COc1ccc(S(=O)(=O)N2CCCC(C(=O)Nc3ccc(C(N)=O)cc3)C2)cc1C (stereo not shown) [CBK269163],99.4
22,O=C(O)c1cccc(CSc2nnc(-c3ccccc3)c(-c3ccccc3)n2)c1 [CBK269165],97.6

row,SMILES,"viability at 28.5 h, 10 µM [%]"
1,O=C(CSCCO)Nc1ccc(Oc2ccccc2)cc1 [CBK269167],98.4
2,COC(=O)c1c(NC(=O)C(=O)NCc2cccnc2)sc2c1CCCC2 [CBK269170],88.8
3,COc1cccc(C(=O)c2snc(Nc3ccc(F)cc3)c2N)c1 [CBK269173],117
4,COc1ccccc1C(=O)NCCNC(=O)c1ccccn1 [CBK269174],104
5,Cc1cc2occ(CC(=O)NCc3ccccn3)c2c(C)c1Cl [CBK269175],97.5
6,CN1CCN(Cc2nc3c(c(=O)n(C)c(=O)n3C)n2Cc2c(F)cccc2Cl)CC1 [CBK269179],98.3
7,CC1(C)Cc2nc3sc4c(=O)n(CC(=O)NCCc5ccccc5)cnc4c3cc2CS1 [CBK269180],97.8
8,O=C(c1ccccc1Cl)N1N=C(c2cccnc2)CC1c1ccccc1O (stereo not shown) [CBK269182],102
9,Cc1nnc2sc(-c3cccc4ccccc34)nn12 [CBK269185],39.8
10,CC1CCCCN1Cc1nc2c(c(=O)n(C)c(=O)n2C)n1CCc1ccccc1 (stereo not shown) [CBK269189],117
11,COc1ccc(N2CCN(C(=S)c3ccc(OCC(N)=O)cc3)CC2)cc1 [CBK269190],100
12,O=C(Nc1cccc(F)c1)C(c1ccccc1)N1CCOCC1 (stereo not shown) [CBK269191],84.5
13,CCOc1ccc(CNc2ccc(N3CCOCC3)c(C(=O)O)c2)cc1OC [CBK269192],93
14,O=C(NCCCNC(=O)c1ccccn1)c1ccc(Cl)cc1 [CBK269193],88.5
15,Cc1ncc([N+](=O)[O-])n1CC(=O)NC1CCCCCC1 [CBK269194],97.4
16,COc1cc(Cl)cc(CNCCO)c1OC(C)C [CBK269196C],86.7
17,O=C1CC(N2CCN(C3CC(=O)N(Cc4ccccc4)C3=O)CC2)C(=O)N1Cc1ccccc1 (stereo not shown) [CBK269198],122
18,CC1CCCCN1Cc1nc2c(c(=O)n(C)c(=O)n2C)n1Cc1ccccc1 (stereo not shown) [CBK269203],105
19,CC1(C)CC(=O)C2=C(C1)c1onc(N)c1C2Cc1ccccc1 (stereo not shown) [CBK269206],110
20,COc1ccc(OC)c(NC(=O)CSc2nnc(-c3ccncc3)s2)c1 [CBK269209],97.2
21,O=S(=O)(N1CCCCCC1)N1CCN(S(=O)(=O)N2CCCCCC2)CC1 [CBK269210],88.3
22,C=C(C)CN1CCN(C(=O)c2cc3cccc(OC)c3oc2=O)CC1 [CBK269211],59

row,SMILES,"viability at 28.5 h, 10 µM [%]"
1,O=C(CN1CCOCC1)NC(=O)Nc1ccccc1 [CBK269213],98
2,COCCN(Cc1cc2ccc(C)cc2nc1O)S(=O)(=O)c1ccccc1 [CBK269216],99.6
3,COC(=O)c1c(NC(=O)C2CC(=O)NN2C)sc2c1CCC2 (stereo not shown) [CBK269218A],89.2
4,O=S(=O)(N1CCCCCC1)N1CCNCC1 [CBK269219C],96.5
5,Cc1ccccc1OCc1nn2c(C)nnc2s1 [CBK269220],100
6,COC(=O)c1ccc(N2CCN(C)CC2)c(NC(=O)c2cc(Br)ccc2OC)c1 [CBK269221],92
7,Cc1ccc(S(=O)(=O)NCCc2ccccn2)s1 [CBK269223],102
8,Cn1c(=O)c2c(nc(CN3CCOCC3)n2Cc2c(F)cccc2Cl)n(C)c1=O [CBK269224],98.9
9,Cc1nnc(SCC(=O)Nc2nonc2C)s1 [CBK269227],98.9
10,CSCCC(C(=O)O)n1c(S)nnc1-c1ccc2ccccc2n1 (stereo not shown) [CBK269230],99.5
11,COc1ccc(-c2oc3ccccc3c(=O)c2OCC(=O)O)cc1 [CBK269232],98.7
12,O=C(NCCCN1CCOCC1)Nc1ccccc1F [CBK269233],88.6
13,c1ccc(Cn2c(CN3CCCCC3)nc3ccccc32)cc1 [CBK269237],102
14,O=C(CCN1C(=O)c2ccc(Br)cc2C1=O)N1CCN(Cc2ccccc2)CC1 [CBK269238],104
15,COC(=O)c1ccc(NC(=O)CSc2nnc(-c3ccncc3)s2)cc1 [CBK269239],103
16,COc1ccc(/C=C/c2nc(C#N)c(NCc3cccnc3)o2)cc1OC [CBK269240],91.3
17,O=C(NCCc1cc2ccccc2[nH]1)Nc1cccc2ccccc12 [CBK269246],106
18,COc1ccccc1NC(=O)c1sc2nc(N3CCOCC3)c3c(c2c1N)CCCC3 [CBK269247],103
19,Cc1c(NC(=O)CN2CCCC(C)C2)ccc2nsnc12 (stereo not shown) [CBK269248],97.4
20,Cc1ccc(C(=O)N2CCN(S(=O)(=O)N3CCCCCC3)CC2)cc1 [CBK269249],101

# Reference: publication PMC12040169 (PLOS Biology, 2025)
